Reference: PubChem BioAssay (NCI)
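Where inhibition never reached the appropriate level, the endpoint shown equals the highest concentration tested. Otherwise, values were interpolated linearly from a five-concentration, 48-hour dose response in 96-well plates. TGI is the concentration that stops growth completely.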

Columns and labels:
Assay in all cases: growth of human tumour cells (NCI), 48 h
NCI-H460 lung = system: NCI-H460 lung
K-562 leukemia = system: K-562 leukemia
IGROV1 ovarian = system: IGROV1 ovarian
EKVX NSCLC = system: EKVX NSCLC
HL-60(TB) leukemia = system: HL-60(TB) leukemia
SK-OV-3 ovarian = system: SK-OV-3 ovarian
MALME-3M melanoma = system: MALME-3M melanoma
RXF 393 renal = system: RXF 393 renal
786-0 renal = system: 786-0 renal
SK-MEL-5 melanoma = system: SK-MEL-5 melanoma
MDA-N = system: MDA-N

Row | SMILES | TGI (NCI-H460 lung) | TGI (K-562 leukemia) | TGI (IGROV1 ovarian) | TGI (EKVX NSCLC) | TGI (HL-60(TB) leukemia) | TGI (SK-OV-3 ovarian) | TGI (MALME-3M melanoma) | TGI (RXF 393 renal) | TGI (786-0 renal) | TGI (SK-MEL-5 melanoma) | TGI (MDA-N)
1 | COc1ccc2oc(=N)c(C(=O)Nc3ccccn3)cc2c1 | > 100 µM | > 100 µM | > 100 µM | > 100 µM | > 100 µM | > 100 µM | > 100 µM | > 100 µM | > 100 µM | > 100 µM | –
2 | CN(C)CCCN1c2ccccc2CCc2ccc([N+](=O)[O-])cc21 | 42.3 µM | > 100 µM | 31 µM | > 100 µM | 75.6 µM | > 100 µM | 35.2 µM | – | > 100 µM | 31.4 µM | 40.9 µM
3 | CC(NC(C)(C)C)C(=O)c1cccc(Cl)c1 (stereo unspecified) | > 100 µM | > 100 µM | > 100 µM | > 100 µM | – | > 100 µM | > 100 µM | > 100 µM | > 100 µM | > 100 µM | –
4 | COc1cc2c(cc1OC)C1(c3ccc(Cl)cc3)ON=C(c3ccccc3)N1CS2 (stereo unspecified) | > 100 µM | > 100 µM | > 100 µM | > 100 µM | > 100 µM | > 100 µM | > 100 µM | > 100 µM | > 100 µM | > 100 µM | –
5 | [N-]=[N+]=C1C(=O)C2CC3CC(C2)CC1C3 | > 100 µM | > 100 µM | > 100 µM | > 100 µM | > 100 µM | > 100 µM | > 100 µM | > 100 µM | > 100 µM | > 100 µM | –
6 | Cc1n[nH]c(=O)n1/N=C/c1ccc([N+](=O)[O-])o1 | 49.4 µM | > 100 µM | – | 34.3 µM | – | > 100 µM | 15.5 µM | 17.7 µM | 36.3 µM | 12.1 µM | –
7 | COC(=O)CC1NC(=O)C1C1(C)OCCO1 (stereo unspecified) | > 100 µM | – | > 100 µM | > 100 µM | > 100 µM | – | > 100 µM | > 100 µM | > 100 µM | > 100 µM | –
8 | Cc1ccc(CC(C)N)cc1 (stereo unspecified) | > 100 µM | > 100 µM | > 100 µM | > 100 µM | > 100 µM | > 100 µM | > 100 µM | > 100 µM | > 100 µM | > 100 µM | –
9 | COc1cc(-c2cc(-c3cc([N+](=O)[O-])c(/C=N/NC(=O)c4ccncc4)o3)ccc2OC)ccc1C | – | > 100 µM | > 100 µM | > 100 µM | – | > 100 µM | > 100 µM | > 100 µM | > 100 µM | – | –
10 | COc1cccc(NC(=O)C(C#N)=C(SC)SC)c1 | > 100 µM | > 100 µM | > 100 µM | > 100 µM | – | > 100 µM | > 100 µM | > 100 µM | > 100 µM | > 100 µM | > 100 µM
11 | CC(C)(C)c1cc(C2COC(c3cc(C(C)(C)C)c(O)c(C(C)(C)C)c3)CO2)cc(C(C)(C)C)c1O (stereo unspecified) | – | > 100 µM | > 100 µM | > 100 µM | – | > 100 µM | > 100 µM | > 100 µM | > 100 µM | > 100 µM | > 100 µM
